In the experiment the test system is human meprin-β (hMPβ) and human APP in HEK293 cells. Kind of experiment: Aβ secreted by HEK293 cells after transient overexpression of human meprin-β and human APP, ELISA. It counts as cell-based. To be noted: 20 μM actinonin (1% DMSO), 24 h, HEK293, ELISA (IBL) with antibody 6E10. As to the method:
The sequence of human APP was cloned into the vector pcDNA3.1 (Invitrogen) and various mutations were inserted. The resulting clones were named pcDNA-hAPP (for wildtyp APP), pcDNA-hAPPsw (for mutation K595N, M596L) and pcDNA-hAPP/E3Q (for mutation E599Q). For transient overexpression of human meprin and human APP the cells were cultured in 6-well dishes until 90% confluence, transfected with 2 μg of vector with meprin and 2 μg of one of the described APP-vectors per well using Lipofectamin2000 (Invitrogen) according to manufacturer's manual. Control samples were transfected with pcDNA3.1. After 24 h the solution was replaced by medium free of serum and phenolred. Medium was collected 24 h later and supplemented with a protease inhibitor cocktail (complete, Mini, Roche), centrifuged at 500×g and 10 000×g, subsequently to remove cells and debris. The supernatant was stored at −80 until analysis by ELISA (IBL) and urea western-blot for identification of liberated Aβ species.
24 h after co-transfection of HEK293 cells with human APP and meprin (as described for example 4) the medium was replaced by medium free of serum and phenolred supplemented with 20 μM Actinonin (1% DMSO). 24 hours later medium was collected, supplemented with inhibitor cocktail (complete, Mini, Roche), centrifuged at 500×g and 10 000×g, subsequently to remove cells and debris. […]

In the case of `CCCCC[C@H](CC(=O)NO)C(=O)N[C@H](C(=O)N1CCC[C@H]1CO)C(C)C` [Actinonin], the “Effect on the increase of Aβ secretion after overexpression of hAPP and hMPβ” value is “reduced to almost the basal level”.

These data come from patent publication US20110152341A1, “CLEAVAGE OF B-AMYLOID PRECURSOR PROTEIN” (PROBIODRUG AG, priority 2009, published 2011).
